US20210268070A1, “Use of Immunomodulators to Control Infection and Stimulate Healing in Normal and Diabetic Wounds” (priority 2018, published 2021)
Entries after “also recorded” stand apart in the source; their conditions may differ.

How the values were obtained:
P. aeruginosa PA103 = test: Wound model of infection with PA103 in normal (C57BL) mice; assay type: in vivo; conditions: for infection control against P. aeruginosa PA103 in normal wounds: C57B mice, immunomodulator added locally at time of infection, compared to PBS, FIGS. 3A, 4A, 4B, 6A
Protocol: The implant model of infection in C57B mice was used for 10^6 PA103 (FIG. 2A) or 10^6 USA300 MRSA (FIG. 2C). The wound model of infection was used for 10^6 PA103 in C57BL mice (FIG. 2B) or diabetic db/db mice (FIG. 2D). Infection was carried out at the time of surgery by adding bacteria directly to the surgical sites. Immunomodulators, namely, LPS (10 ng or 100 ng), fMLP (10 ng or 100 ng), CCL3 (1 μg) were added topically at the surgical sites at the time of surgery & infection. GM-CSF (10 μg/kg), tobramycin (Tob at 3.5 mg/kg), and vancomycin (40 mg/kg) were added systemically by i.p. injection 1 h before surgical implantation and infection. Infection levels were determined 24 h following infection (N>4 animals/group; NS=not significant, * p<0.01, ** p<0.001, ***p<0.0001 One-way ANOVA).
(15A) C57BL/6 mice received 40 mg/kg prophylaxis (Sys) vancomycin (Vanc) or 3.5 mg/kg tobramycin (Tobra) by i.p. injection. (15A) 1 h after antibiotic administration, 106 CFU of USA300 was added to implant after insertion into facia (Implant Model). (15B) 1 h after antibiotic administration, 10^6CFU of USA300 or 106CFU PA103 (Pa) were added full-thickness wounds in of C57BL/6 (Wound Model). Infection levels at implant surgical site (Tissue & Implant) or a distant site (Spleen), or wound tissues were assessed 24 h following infection. (N>4 animals/group, * p<0.01, ***p<0.0001, One-way ANOVA).
We assessed these immunomodulators for their ability to control wound and/or implant SS's in normal (C57BL/6) or diabetic (db/db) mice. We acknowledge that diabetic individuals are not as immunocompromised as other immunocompromised patient groups. […] All immunomodulators were added locally at the surgical sites at the time of infection, except GM-CSF (10 μg/kg) which was administered systemically by i.p. injection 1 h prior to surgery per its FDA-approved route of delivery. […] CCL3 and GM-CSF are also tested using the implant model of infection. Here, we tested CCL3 and GM-CSF in the wound model of infection in C57B mice.
Implant surgery and wound surgery and surgical site infection are performed according to the following method. On the day of surgery, all mice are anesthetized by an intraperitoneal injection of a ketamine/xylazine mixture (90 mg/kg ketamine+5 mg/kg xylazine for mice). The back of the animals is shaved using an electric shave and scrubbed with alcohol swabs 3 times, a topical antiseptic solution (Hibiclens; chlorhexidine gluconate) is applied to the skin. The surgical procedures are performed with sterile instruments, sterile surgical gloves, and aseptic techniques as follows. For wound surgical procedure, a sterile biopsy punch (5-7 mm diameter) is used to punch through the full thickness of the back skin below the shoulder blades. Four 5-7 mm skin wounds are made on the back of each mouse. Wounds placed in this area cannot be reached by the animals and therefore are protected from self-licking. For implant surgery, a 4-mm long lateral skin incision is made on the upper back, and the skin is retracted. The space above the muscle is opened using blunt dissection with fine forceps, to create a rostral fascia indentation. Then, immunomodulators at indicated concentrations (in a 20 μL volume) or PBS control are injected into the fascia indentation.

leukocytes = test: Leukocyte migration (H&E staining) and activation (MPO ELISA) in normal wound; assay type: in vivo, C57B mice; conditions: for leukocyte migration and neutrophil activation in a normal wound: compared to PBS, FIGS. 10A-10D
Source text: FIGS. 10A-10D illustrate that immunomodulatory treatment enhances leukocyte migration and neutrophil activation in a normal wound. (10A, 10B—CCL3, 10C—LPS, fMLF, 10D—GM-CSF), N=4; Significance determined as compared to PBS *<0.05, **p<0.01, ***p<0.001.
We next examined the impact of CCL3 topical treatment on leukocyte migration by H&E staining, and on leukocyte activation by myeloperoxidase (MPO) measurements by ELISA. (MPO is primarily used as a marker for neutrophil activation but it can also be expressed to lesser extent in macrophages).

inflammatory cytokines = test: Production of inflammatory cytokines in normal wound; assay type: in vivo, mice
Protocol: FIGS. 7A and 7B illustrate that CCL3 treatment increases the production of inflammatory cytokines in a normal wound. N=4; Significance determined as compared to PBS *<0.05, **p<0.01, ***p<0.001.
FIGS. 8A and 8B illustrate that LPS and fMLP treatment increases the production of inflammatory cytokines in a normal wound. N=4; LPS (10 ng) and fMLP (100 nM) directly added to wounds at the time of infection after wounding. Significance determined as compared to PBS *<0.05, **p<0.01.
Tissue-Tek O.C.T. (Sakura); Lysing Matrix D (MP Biomedicals); Collagenase (Roche Diagnostics), Hematoxylin and eosin (H&E); DNase 1 (Sigma-Aldrich); Hyluronidase, Streptozotocin (Sigma-Aldrich); Trizol (Invitrogen); CD45 antibody (eBioscience, Inc); Ly6C; Ly6G; CD11b; CD3 (BioLegend); CD68; GAPDH (Sigma-Aldrich). Ly6G and CD68 (Abcam); Primer pairs for GAPDH were from Qiagen. Masson's trichrome stain (Sigma-Aldrich); Picrosirius red (Abcam); Fibronectin (Chemicon International); Insulin slow-release capsules (Linplant; LinShin, Toronto, Canada) CCL3 (R&D Systems) fMLP (Sigma-Aldrich); II-1β ELISA (R&D Systems); TNF-α ELISA (R&D Systems).

[1] = LPS (10 ng) and fMLP (100 nM) directly added to wounds at the time of infection after wounding, FIGS. 8A and 8B
[2] = topical CCL3 to C57B wounds, regardless of infection, FIG. 10A, 10B

lipopolysaccharide [LPS]
infection control against P. aeruginosa PA103 in normal wounds (P. aeruginosa PA103): enhance; also recorded: significantly improved | leukocyte migration and neutrophil activation in a normal wound (leukocytes): enhances | production of inflammatory cytokines in a normal wound (inflammatory cytokines; [1]): increases

CSCC[C@H](NC=O)C(=O)N[C@@H](CC(C)C)C(=O)N[C@@H](Cc1ccccc1)C(=O)O [fMLP, N-Formylmethionyl-leucyl-phenylalanine]
infection control against P. aeruginosa PA103 in normal wounds (P. aeruginosa PA103): enhance; also recorded: significantly improved | leukocyte migration and neutrophil activation in a normal wound (leukocytes): enhances | production of inflammatory cytokines in a normal wound (inflammatory cytokines; [1]): increases

B1: Chemokine (C-C motif) ligand 3 (protein, listed as Homo sapiens)
chain: MQVSTAALAVLLCTMALCNQFSASLAADTPTACCFSYTSRQIPQNFIADYFETSSQCSKPGVIFLTKRSRQVCADPSEEWVQKYVSDLELSA
notes: class 1 immunomodulator
controlling PA103 infection, compared with prophylaxis tobramycin (P. aeruginosa PA103; C57B mice wound model, topical CCL3 1 μg, both at 10^3 and 10^6 CFU, tobramycin 3.5 mg/kg i.p., FIG. 2B): as effective | infection control against P. aeruginosa PA103 in normal wounds (P. aeruginosa PA103): enhances; also recorded: effective | leukocyte migration and neutrophil activation in a normal wound (leukocytes): enhances | leukocytes' activation in the wound (myeloperoxidase, MPO, by ELISA) (leukocytes; [2]): significant increases | leukocytes' migration in the wound (H&E staining) (leukocytes; [2]): significant increases | production of inflammatory cytokines in a normal wound (inflammatory cytokines; CCL3 treatment, compared to PBS, FIGS. 7A and 7B): increases
